From patent publication US10287616B2, “Label free biosensors, gram-negative bacteria detection, and real-time and end point determination of antibiotic effects” (priority 2015, dated 2019) come the findings set out here.

For assay [1], the system named is E. coli W1485. In words: Real time experiment, SWV signal after 3 hours of incubation with antibiotic. The settings on record: 30 mg/L antibiotic; for SWV sensor signal: without antibiotic 0.37 μA. In kind it is cell-based, Escherichia coli. As to the method:
Electrochemical measurements were performed on a GAMRY 4-channel electrochemical workstation. A three-electrode electrochemical cell composed of a Con A sensor as working electrode, platinum wire as counter electrode and Ag/AgCl (saturated KCl) electrode as reference electrode, was used. Square wave voltammetric measurements were performed under ambient conditions (21-23° C.). Each measurement had been repeated at least three times with independently prepared Con A sensors.
(§1) For the real time measurements, Con A sensor was mounted in a biosensor cell containing 1 mL of 10 mM HEPES buffer (pH 7.4). Real time QCM measurements were obtained for each experimental step. First, 1 μL of 5×10^8 cells/mL E. coli obtained from the stationary phase was added into the biosensor cell. When frequency reached a constant value, it was washed with 1 mL of 10 mM HEPES buffer to remove the unbound E. coli. […] The frequency changes vs time and the damping resistance vs time were recorded by QCM.
Different types of antibiotics have differing abilities to alter the LPS properties and subsequent reduction in their binding. This can be used as an indicator for the antibiotic effects for killing the bacteria or inhibiting their growth. The biosensor ability to quantitatively measure these parameters real time was tested. For that purpose, the Con A sensor was exposed to 1 μL of 5×10^8 cells/mL E. coli to capture the bacteria via Con A-LPS binding. The unbound E. coli was removed by washing with 1 mL of 10 mM HEPES buffer. […] In the three separate measurements shown in FIG. 25A, it can be clearly seen that the initial parts of the curves which are related to E. coli immobilization are almost coinciding to each other. This real time QCM measurement also allows us to observe the reproducibility of the sensor performance. In the last parts of the curves, when different antibiotics are added, their variable effects in killing the bacteria and reducing their binding caused a variable shift of the frequency. This shift was opposite in direction to what was obtained by bacterial addition which is indicative of reduced binding. These responses (shown in the inset) provided the quantitative details of this effect. […] Due to real time nature of this experiment, the frequency and damping resistance change were much smaller than that of FIGS. 24A and 24B. This confirms that the antibiotic drug effect on LPS is a slow process but the high sensitivity sensor disclosed herein allows such subtle changes to be measured. Moreover, the results of the QCM and Electrochemical measurements are validating each other again. […]

Assay [2] concerns E. coli W1485. The settings on record: for ΔF (Hz): 30 mg/L antibiotic added after E. coli attached to sensor; for ΔF (Hz) / ΔR (Ω) / ΔR/R0 (%): FIG. 25A; for ΔR (Ω) / ΔR/R0 (%): 30 mg/L antibiotic added after E. coli attached; for frequency after antibiotic addition: 2 hour period after addition, from 350, 350 and 370 Hz before addition; for reduction of binding to (LPS activity, real time analysis): 1 hour time point. The protocol:
The gold QCM electrode consisted of a thin AT-cut quartz crystal wafer with vapor deposited gold electrode on each side (10 MHz, non-polished with 1000 A gold, geometric area is 0.22 cm2, International Crystal Company). For all QCM test, the gold electrode was mounted on the side of a KeI-F cell chamber. Frequency monitoring was performed using a Maxtek RQCM quartz crystal microbalance research instrument. Baseline was recorded in 1 mL of 10 mM HEPES buffer containing 1 mM Ca^2+ and 1 mM Mn^2+. Each of the bacterial samples to be analyzed was then added into the detection sensor cell after stabilization of resonance frequency (shift less than 1 Hz·min-1). A small magnetic stir bar was used to increase the mass transfer through convection. The frequency changes (ΔF) of the QCM were monitored using a network/spectrum/impedance analyzer (Agilent 4395A) controlled by a PC via an Intel card.
as §1
Different types of antibiotics have differing abilities to alter the LPS properties and subsequent reduction in their binding. This can be used as an indicator for the antibiotic effects for killing the bacteria or inhibiting their growth. The biosensor ability to quantitatively measure these parameters real time was tested. For that purpose, the Con A sensor was exposed to 1 μL of 5×10^8 cells/mL E. coli to capture the bacteria via Con A-LPS binding. The unbound E. coli was removed by washing with 1 mL of 10 mM HEPES buffer.

For assay [3], the system named is E. coli W1485. As to the kind of experiment: End point antibiotic susceptibility test with Con A biosensor, square wave voltammetry readout. The assay is classed as cell-based, Escherichia coli. The settings on record: 18 hours, FIG. 24B inset. As to the method: In the end point measurement, four samples containing 2×10^5 cells/mL of E. coli obtained from log phase in fresh LB culture were prepared. […] The four samples were incubated for 18 hours, 37° C., 280 rpm on an orbital environmental shaker. Finally, 1 μL of the E. coli culture from the each prepared sample was introduced to the Con A biosensor in 1 mL of 10 mM HEPES buffer (pH 7.4) for QCM and electrochemical biosensor measurements, respectively. The sample without addition of any antibiotic was used as control.
The concentrations used were based on the literature and current clinically used dosages. The sample without any antibiotic was used as a control. As mentioned above, E. coli W1485 was used as the model Gram-negative bacterial analyte. E. coli W1485 is a “semirough” bacterial strain in which the intact LPS core is capped by a single O-antigen subunit consisting of glucose, N-acetylglucosamine, galactose, and rhamnose in the ratio 1.8:1.0:0.7:0.6, which has been confirmed by the sodium dodecyl sulfate polyacrylamide gel electrophoresis (SDS-PAGE) method. Con A binds specifically at α-D-mannosyl and α-D-glucosyl residues (two hexoses differing only by the alcohol on carbon 2) in the terminal position of ramified structures from β-glycans (reach in α-mannose, or hybrid and biantennary glycanes complexes).

Like-named read-outs stand apart in the source and are kept apart here.

With `CO/N=C(\C(=O)N[C@@H]1C(=O)N2C(C(=O)O)=C(CSc3nc(=O)c(=O)[nH]n3C)CS[C@H]12)c1csc(N)n1` [ceftriaxone], in the assay on E. coli W1485 [1], the “SWV sensor signal, fold of signal without antibiotic” value was found to be 2.50 fold and the SWV sensor signal was found to be 0.92 μA. Moreover, in the assay with E. coli W1485 [2], the “ΔF (Hz)” value is listed as −25 Hz, the “ΔR (Ω)” value was −2.2 Ω and the “ΔR/R0 (%)” value is −0.7%. Besides, in the assay with E. coli W1485 [2] (30 mg/L), the “frequency after antibiotic addition” value came out at 325 Hz and the “reduction of binding to (LPS activity, real time analysis)” value (“reduction of binding” for short) is 93%. Besides, in the assay on E. coli W1485 [2] (30 mg/L, 2 hour period after antibiotic addition), the “decrease in frequency (fold of value before antibiotic)” value was determined as 0.93 fold. Further, in the assay with E. coli W1485 [2] (30 mg/L, listed as Ceftriaxone), the “reduction of binding” value amounted to 93%. Besides, in the assay with E. coli W1485 [3] (0.1 mg/L antibiotic), the “increase of the SWV signal as compared to control” value (“increase of the SWV signal” below) is given as 4.8 folds.

`O=C(O)c1cn(C2CC2)c2cc(N3CCNCC3)c(F)cc2c1=O` [ciprofloxacin] displayed an SWV sensor signal in the assay on E. coli W1485 [1] of 0.89 μA. In addition, in the assay on E. coli W1485 [2], the “ΔR (Ω)” value is −2.0 Ω and the “ΔR/R0 (%)” value was −0.6%. For the same compound, in the assay with E. coli W1485 [2] (30 mg/L), the “frequency after antibiotic addition” value came to 320 Hz and the “reduction of binding” value worked out at 91%. Besides, in the assay with E. coli W1485 [2] (30 mg/L, listed as Ciprofloxacin), the “reduction of binding” value was 91%. Besides, in the assay on E. coli W1485 [3] (0.1 mg/L antibiotic), the “increase of the SWV signal” value was 7.2 folds.

As to `CN(C)[C@@H]1C(O)=C(C(N)=O)C(=O)[C@@]2(O)C(O)=C3C(=O)c4c(O)cccc4[C@@](C)(O)[C@H]3C[C@@H]12` [tetracycline], in the assay with E. coli W1485 [1], the SWV sensor signal worked out at 0.65 μA. Also, in the assay with E. coli W1485 [2], the “ΔF (Hz)” value is −20 Hz, the “ΔR (Ω)” value is −2.0 Ω and the “ΔR/R0 (%)” value was −0.6%. For the same compound, in the assay with E. coli W1485 [2] (30 mg/L), the “frequency after antibiotic addition” value was determined as 350 Hz and the “reduction of binding” value amounted to 95%. In the assay with E. coli W1485 [2] (30 mg/L, listed as Tetracycline), the “reduction of binding” value was determined as 95%. Moreover, in the assay on E. coli W1485 [3] (10 mg/L antibiotic), the “increase of the SWV signal” value came to 2 folds.
